Experimental data published in PubChem BioAssay (NCI).
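Growth conditions: 96-well plates. Treatment: test compound, 48 hours, 5 concentrations. Analysis: linear interpolation between bracketing concentrations; unreached endpoints set to highest concentration. TGI: total growth inhibition.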

Assays:
Experiment in all cases: NCI tumour cell line growth inhibition, 48 h
786-0 renal = tested on: 786-0 renal
A549 NSCLC = tested on: A549 NSCLC
ACHN renal = tested on: ACHN renal
BT-549 breast = tested on: BT-549 breast
CAKI-1 renal = tested on: CAKI-1 renal
CCRF-CEM leukemia = tested on: CCRF-CEM leukemia
COLO 205 colon = tested on: COLO 205 colon
EKVX NSCLC = tested on: EKVX NSCLC
HCC-2998 colon = tested on: HCC-2998 colon
HCT-116 colon = tested on: HCT-116 colon
HCT-15 colon = tested on: HCT-15 colon
HL-60(TB) leukemia = tested on: HL-60(TB) leukemia
HOP-92 NSCLC = tested on: HOP-92 NSCLC
HS 578T breast = tested on: HS 578T breast
HT29 colon = tested on: HT29 colon
IGROV1 ovarian = tested on: IGROV1 ovarian
K-562 leukemia = tested on: K-562 leukemia
KM12 colon = tested on: KM12 colon
LOX IMVI melanoma = tested on: LOX IMVI melanoma
M14 melanoma = tested on: M14 melanoma
MCF7 breast = tested on: MCF7 breast
MDA-MB-231 breast = tested on: MDA-MB-231 breast
MDA-MB-435 = tested on: MDA-MB-435
MDA-N = tested on: MDA-N
MOLT-4 leukemia = tested on: MOLT-4 leukemia
NCI-H226 lung = tested on: NCI-H226 lung
NCI-H23 lung = tested on: NCI-H23 lung
NCI-H460 lung = tested on: NCI-H460 lung
NCI-H522 lung = tested on: NCI-H522 lung
NCI/ADR-RES ovarian = tested on: NCI/ADR-RES ovarian
OVCAR-3 ovarian = tested on: OVCAR-3 ovarian
OVCAR-4 ovarian = tested on: OVCAR-4 ovarian
OVCAR-5 ovarian = tested on: OVCAR-5 ovarian
OVCAR-8 ovarian = tested on: OVCAR-8 ovarian
PC-3 prostate = tested on: PC-3 prostate
RPMI-8226 leukemia = tested on: RPMI-8226 leukemia
SF-268 CNS = tested on: SF-268 CNS
SF-295 CNS = tested on: SF-295 CNS
SK-MEL-2 melanoma = tested on: SK-MEL-2 melanoma
SK-MEL-28 melanoma = tested on: SK-MEL-28 melanoma
SK-MEL-5 melanoma = tested on: SK-MEL-5 melanoma
SK-OV-3 ovarian = tested on: SK-OV-3 ovarian
SN12C renal = tested on: SN12C renal
SNB-19 CNS = tested on: SNB-19 CNS
SR leukemia = tested on: SR leukemia
SW-620 colon = tested on: SW-620 colon
TK-10 renal = tested on: TK-10 renal
U251 CNS = tested on: U251 CNS
UACC-257 melanoma = tested on: UACC-257 melanoma
UACC-62 melanoma = tested on: UACC-62 melanoma
UO-31 renal = tested on: UO-31 renal
DU-145 prostate = tested on: DU-145 prostate
HOP-62 NSCLC = tested on: HOP-62 NSCLC
MALME-3M melanoma = tested on: MALME-3M melanoma
RXF 393 renal = tested on: RXF 393 renal
SF-539 CNS = tested on: SF-539 CNS
SNB-75 CNS = tested on: SNB-75 CNS
T-47D breast = tested on: T-47D breast

## NS(=O)(=O)c1cc(S(N)(=O)=O)c(NC(=O)N(c2ccccc2)c2ccccc2)c(Cl)c1Cl
786-0 renal
  TGI: > 100 µM
A549 NSCLC
  TGI: > 100 µM
ACHN renal
  TGI: 76.5 µM
BT-549 breast
  TGI: 36.1 µM
CAKI-1 renal
  TGI: 65.2 µM
CCRF-CEM leukemia
  TGI: 25.7 µM
COLO 205 colon
  TGI: 42.2 µM
EKVX NSCLC
  TGI: 62.8 µM
HCC-2998 colon
  TGI: 35.3 µM
HCT-116 colon
  TGI: > 100 µM
HCT-15 colon
  TGI: > 100 µM
HL-60(TB) leukemia
  TGI: 52 µM
HOP-92 NSCLC
  TGI: 27 µM
HS 578T breast
  TGI: 44.9 µM
HT29 colon
  TGI: 48.2 µM
IGROV1 ovarian
  TGI: 25.6 µM
K-562 leukemia
  TGI: 81.4 µM
KM12 colon
  TGI: 57.1 µM
LOX IMVI melanoma
  TGI: 25 µM
M14 melanoma
  TGI: 51.4 µM
MCF7 breast
  TGI: > 100 µM
MDA-MB-231 breast
  TGI: > 100 µM
MDA-MB-435
  TGI: 67.2 µM
MDA-N
  TGI: 88.5 µM
MOLT-4 leukemia
  TGI: 42 µM
NCI-H226 lung
  TGI: 53.7 µM
NCI-H23 lung
  TGI: 58.2 µM
NCI-H460 lung
  TGI: > 100 µM
NCI-H522 lung
  TGI: 27.1 µM
NCI/ADR-RES ovarian
  TGI: 54.4 µM
OVCAR-3 ovarian
  TGI: 49.4 µM
OVCAR-4 ovarian
  TGI: > 100 µM
OVCAR-5 ovarian
  TGI: > 100 µM
OVCAR-8 ovarian
  TGI: 34.2 µM
PC-3 prostate
  TGI: > 100 µM
RPMI-8226 leukemia
  TGI: 44.6 µM
SF-268 CNS
  TGI: > 100 µM
SF-295 CNS
  TGI: 95.9 µM
SK-MEL-2 melanoma
  TGI: 82.7 µM
SK-MEL-28 melanoma
  TGI: > 100 µM
SK-MEL-5 melanoma
  TGI: 33.1 µM
SK-OV-3 ovarian
  TGI: 65.3 µM
SN12C renal
  TGI: 57.6 µM
SNB-19 CNS
  TGI: > 100 µM
SR leukemia
  TGI: 43.1 µM
SW-620 colon
  TGI: > 100 µM
TK-10 renal
  TGI: > 100 µM
U251 CNS
  TGI: > 100 µM
UACC-257 melanoma
  TGI: 27.6 µM
UACC-62 melanoma
  TGI: 93.2 µM
UO-31 renal
  TGI: 94.1 µM

## CCOC(=O)CCCn1cc(C(=O)OC)nn1
786-0 renal
  TGI: > 100 µM
A549 NSCLC
  TGI: > 100 µM
ACHN renal
  TGI: > 100 µM
BT-549 breast
  TGI: > 100 µM
CAKI-1 renal
  TGI: > 100 µM
CCRF-CEM leukemia
  TGI: > 100 µM
COLO 205 colon
  TGI: > 100 µM
DU-145 prostate
  TGI: > 100 µM
EKVX NSCLC
  TGI: > 100 µM
HCC-2998 colon
  TGI: > 100 µM
HCT-116 colon
  TGI: > 100 µM
HCT-15 colon
  TGI: > 100 µM
HOP-62 NSCLC
  TGI: > 100 µM
HOP-92 NSCLC
  TGI: > 100 µM
HS 578T breast
  TGI: > 100 µM
HT29 colon
  TGI: > 100 µM
IGROV1 ovarian
  TGI: > 100 µM
KM12 colon
  TGI: > 100 µM
LOX IMVI melanoma
  TGI: > 100 µM
MALME-3M melanoma
  TGI: > 100 µM
MCF7 breast
  TGI: > 100 µM
MDA-MB-231 breast
  TGI: > 100 µM
MDA-MB-435
  TGI: > 100 µM
MDA-N
  TGI: > 100 µM
MOLT-4 leukemia
  TGI: > 100 µM
NCI-H226 lung
  TGI: > 100 µM
NCI-H23 lung
  TGI: > 100 µM
NCI-H460 lung
  TGI: > 100 µM
NCI/ADR-RES ovarian
  TGI: > 100 µM
OVCAR-4 ovarian
  TGI: > 100 µM
OVCAR-8 ovarian
  TGI: > 100 µM
PC-3 prostate
  TGI: > 100 µM
RXF 393 renal
  TGI: > 100 µM
SF-268 CNS
  TGI: > 100 µM
SF-295 CNS
  TGI: > 100 µM
SF-539 CNS
  TGI: > 100 µM
SK-MEL-2 melanoma
  TGI: > 100 µM
SK-MEL-28 melanoma
  TGI: > 100 µM
SK-MEL-5 melanoma
  TGI: > 100 µM
SN12C renal
  TGI: > 100 µM
SNB-19 CNS
  TGI: > 100 µM
SNB-75 CNS
  TGI: > 100 µM
SW-620 colon
  TGI: > 100 µM
T-47D breast
  TGI: > 100 µM
TK-10 renal
  TGI: > 100 µM
U251 CNS
  TGI: > 100 µM
UACC-257 melanoma
  TGI: > 100 µM
UACC-62 melanoma
  TGI: > 100 µM
UO-31 renal
  TGI: > 100 µM
